# From patent publication US9605064B2, “Methods and compositions for treatment of skin disorders” (AbbVie Biotechnology Ltd, priority 2006, dated 2017)
# Values joined by “and” are separate entries in the source; they are usually repeats but may differ in a detail not shown here. Equal entries are not always repeated. Marks after values point to notes of the source that are not given here.
# Key:
# [1] = system: patients with moderate to severe chronic plaque psoriasis; test: PASI response, CHAMPION 16-week Phase III trial vs methotrexate and placebo; type: in vivo, human; settings: for PASI 75 Response Rates, % Patients / PASI 90 Response Rates, % Patients: missing PASI = non-responder
# Procedure: (§1) Analytical methods included the following: • Intention-to-treat analyses were performed for all randomized patients • Missing data were analyzed using non-responder imputation (NRI) • PASI 75 at Week 16 (primary endpoint) was analyzed using adjusted Cochran-Mantel-Haenszel test.
# [2] = system: patients with moderate to severe chronic plaque psoriasis; test: PGA, CHAMPION 16-week Phase III trial; type: in vivo, human; settings: ITT, missing PGA = not achieving
# Procedure: as §1
# [3] = system: patients with moderate to severe chronic plaque psoriasis; test: PASI response, open-label extension of CHAMPION (methotrexate to adalimumab transition); type: in vivo, human
# [4] = system: C-reactive protein (CRP); test: C-reactive protein concentrations, post-hoc analysis of REVEAL; type: in vivo, human; settings: for mean change from baseline in CRP: 16 wks
# Procedure: Changes in CRP concentrations were also evaluated in subgroups with or without self-reported psoriatic arthritis (PsA) and with or without obesity (by body mass index [BMI]).
# [5] = system: patients with severe psoriasis who were non-responders to high-dosage etanercept; test: PASI response, open-label adalimumab in non-responders to high-dosage etanercept; type: in vivo, human
# Procedure: Details on clinical course and adverse events were recorded, along with measurements of PASI and Dermatology Life Quality Index (DLQI) at baseline and Weeks 2, 4, 8, and 12.
# This was an open-label prospective evaluation of adalimumab (HUMIRA®, Abbott Laboratories, Abbott Park, Ill., USA). Patients who were non-responders to etanercept were recruited from the Severe Psoriasis Clinic at St John's Institute of Dermatology in London. […] Inclusion criteria included male and female patients more than 18 years of age with plaque psoriasis (Table 98). The study was approved by St Thomas' Research Ethics Committee, and informed consent was obtained from all participants.
# The study period was 12 weeks. […] Patients were able to withdraw from the study at any stage. They were permitted to continue topical treatments at stable dosages throughout the study, but could not use concomitant systemic therapy for psoriasis.
# At each clinical visit PASI, DLQI, and percentage body surface area (% BSA) affected were assessed and recorded. In addition, patients received medical assessments together with monitoring laboratory investigations (FIG. 11).
# The secondary efficacy endpoint was PASI 75 response rate at Week 12.
# [6] = system: patients with moderate to severe chronic plaque psoriasis; settings: in vivo
# From the text: The study was a multi-center, 16-week, randomized controlled Phase III trial. The main inclusion criteria included: • Clinical diagnosis of psoriasis for ≧1 year • Affected body surface area (BSA)≧10% • Psoriasis Area and Severity Index (PASI)≧10 The main exclusion criteria was previous use of MTX or systemic anti-TNF therapy.
# [7] = system: patients with moderate to severe psoriasis; settings: in vivo
# Procedure: Laboratory parameters and adverse events were also recorded.
# [8] = methotrexate-treated patients after 12 weeks of adalimumab therapy
# [9] = methotrexate-treated patients after 24 weeks of adalimumab therapy
substance,measurement,setting,value
"Adalimumab: a human anti-TNF mAb, described in U.S. Pat. No. 6,090,382 as D2E7 (HUMIRA, Abbott Laboratories)",mean percentage PASI improvement,[1]; Week 4,57%
same,"PASI 75 Response Rates, % Patients","[1]; Week 4, ITT",23*† %
same,"PASI 90 Response Rates, % Patients","[1]; Week 4, ITT",7* %
same,"PASI 75 Response Rates, % Patients","[1]; Week 8, ITT",62‡ %
same,"PASI 90 Response Rates, % Patients","[1]; Week 8, ITT",27†‡ %
same,"PASI 75 Response Rates, % Patients","[1]; Week 12, ITT",77‡ %
same,"PASI 90 Response Rates, % Patients","[1]; Week 12, ITT",48†‡ %
same,PASI 75,"[1]; Week 16, ITT, NRI",80%
same,"PASI 75 Response Rates, % Patients","[1]; Week 16, ITT",80‡ %
same,"PASI 90 Response Rates, % Patients","[1]; Week 16, ITT",52†‡ %
same,"PASI 75 Response Rates, % Patients","[1]; Week 16, ITT, listed as ADA",79.6% * †
same,"PASI 90 Response Rates, % Patients","[1]; Week 16, ITT, listed as ADA",51.9% * †
same,PASI 50 response rate,"[1]; Week 16 of CHAMPION, ITT, NRI",88.0% * †
same,PASI 100 response rate,"[1]; Week 16 of CHAMPION, ITT, NRI",16.7% ‡ §
same,"PGA “Clear” or “Minimal” Responses, % Patients",[2]; Week 4,7*† %
same,"PGA “Clear” or “Minimal” Responses, % Patients",[2]; Week 8,27‡§ %
same,"PGA “Clear” or “Minimal” Responses, % Patients",[2]; Week 12,48‡§ %
same,"PGA “Clear” or “Minimal” Responses, % Patients",[2]; Week 16,52‡§ %
same,PASI 75 response rate,[3]; [8],75%
same,PASI 90 response rate,[3]; [8],47%
same,PASI 100 response rate,[3]; [8],18%
same,PASI 75 response rate,[3]; [9],73%
same,PASI 90 response rate,[3]; [9],53%
same,PASI 100 response rate,[3]; [9],32%
same,mean change from baseline in CRP,[4]; Ps group (without self-reported PsA),−1.3
same,patients with elevated CRP at baseline who had a normal CRP,"[4]; Ps group, Wk 16",64.6%
same,mean change from baseline in CRP,[4]; PsA group,−6.3
same,patients with elevated CRP at baseline who had a normal CRP,"[4]; PsA group, Week 16",71.9%
same,patients changed from elevated CRP at baseline to a normal CRP,"[4]; obese patients, Week 16",64.1%
same,patients who achieved at least PASI 50,"[5]; 40 mg weekly, Week 12",80%
same,PASI 50 response,[5]; Patient 1,non-responder
same,time at which PASI 50 was achieved,[5]; Patient 2,≤ 8 Week
same,time at which PASI 75 was reached,[5]; Patient 2,12 Week
same,time at which PASI 50 was achieved,[5]; Patient 3,≤ 4 Week
same,time at which PASI 50 was achieved,[5]; Patient 4,≤ 2 Week
same,time at which PASI 75 was reached,[5]; Patient 4,4 Week
same,time at which PASI 50 was achieved,[5]; Patient 5,≤ 12 Week
same,PASI,"[5]; Week 2, individual patients 1-5 (c1-c5), weekly adalimumab",23.4 and 23.6 and 21.6 and 11.2 and 22.9
same,PASI,"[5]; Week 4, individual patients 1-5 (c1-c5), weekly adalimumab",26.7 and 20.1 and 8.70 and 7.00 and 23.6
same,PASI,"[5]; Week 8, individual patients 1-5 (c1-c5), weekly adalimumab",18.2 and 12.3 and 8.40 and 19.6
same,PASI,"[5]; Week 12, individual patients 1-5 (c1-c5), weekly adalimumab",21.2 and 6.30 and 3.3 and 7.10 and 15.2
same,% Improvement in PASI from baseline to Week 12,"[5]; individual patients 1-5 (c1-c5), weekly adalimumab",6% and 82% and 93% and 52% and 53%
same,Any infectious AE,[6],51 (48) n (%)
same,Any infectious SAE,[6],0 (0) n (%)
same,"Infectious AEs, Patients (%)",[7],18%
same,"Serious infectious AE, Patients (%)",[7],1%
same,patients with serious infections,[7],0.9%
